These results are taken from US9765067B2, “Thiophen-2-yl-pyridin-2-yl-1H-pyrazole-4-carboxylic acid derivatives and the use thereof as soluble guanylate cyclase activators” (Novartis AG, priority 2014, dated 2017).

Broadly, the EC50 is the concentration needed to bring the measured effect to its halfway point. The low end stands for higher potency in that assay, the high end for lower potency in that assay.

Each structure is given as a SMILES string. A value given as a limit tells only on which side of the number the result lay.

This test has as its target T1, soluble guanylate cyclase (human GUCYA3/GUCYB3) overexpressed in CHO cells (Homo sapiens, UniProt Q02108+Q02153).
T1 construct: expressed in transfected cells
T1 sequence (Q02108 1-690 partner): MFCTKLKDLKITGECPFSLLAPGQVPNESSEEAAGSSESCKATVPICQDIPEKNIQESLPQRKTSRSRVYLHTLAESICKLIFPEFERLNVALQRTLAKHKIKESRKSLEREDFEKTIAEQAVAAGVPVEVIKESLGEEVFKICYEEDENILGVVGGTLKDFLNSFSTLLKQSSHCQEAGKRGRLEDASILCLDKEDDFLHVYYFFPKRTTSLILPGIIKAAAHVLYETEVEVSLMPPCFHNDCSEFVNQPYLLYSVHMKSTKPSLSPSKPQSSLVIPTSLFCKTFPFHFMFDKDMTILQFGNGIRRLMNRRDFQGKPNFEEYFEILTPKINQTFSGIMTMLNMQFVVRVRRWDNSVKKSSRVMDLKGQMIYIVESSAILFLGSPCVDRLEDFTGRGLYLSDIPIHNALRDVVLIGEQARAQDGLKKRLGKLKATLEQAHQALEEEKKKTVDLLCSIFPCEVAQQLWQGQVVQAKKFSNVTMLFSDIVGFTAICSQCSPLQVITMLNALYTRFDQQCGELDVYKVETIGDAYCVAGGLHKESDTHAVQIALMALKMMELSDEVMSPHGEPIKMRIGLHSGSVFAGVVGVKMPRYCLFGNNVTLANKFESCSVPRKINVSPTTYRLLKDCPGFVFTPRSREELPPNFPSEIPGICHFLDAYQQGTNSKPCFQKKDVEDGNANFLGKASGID
T1 sequence (Q02153 1-619): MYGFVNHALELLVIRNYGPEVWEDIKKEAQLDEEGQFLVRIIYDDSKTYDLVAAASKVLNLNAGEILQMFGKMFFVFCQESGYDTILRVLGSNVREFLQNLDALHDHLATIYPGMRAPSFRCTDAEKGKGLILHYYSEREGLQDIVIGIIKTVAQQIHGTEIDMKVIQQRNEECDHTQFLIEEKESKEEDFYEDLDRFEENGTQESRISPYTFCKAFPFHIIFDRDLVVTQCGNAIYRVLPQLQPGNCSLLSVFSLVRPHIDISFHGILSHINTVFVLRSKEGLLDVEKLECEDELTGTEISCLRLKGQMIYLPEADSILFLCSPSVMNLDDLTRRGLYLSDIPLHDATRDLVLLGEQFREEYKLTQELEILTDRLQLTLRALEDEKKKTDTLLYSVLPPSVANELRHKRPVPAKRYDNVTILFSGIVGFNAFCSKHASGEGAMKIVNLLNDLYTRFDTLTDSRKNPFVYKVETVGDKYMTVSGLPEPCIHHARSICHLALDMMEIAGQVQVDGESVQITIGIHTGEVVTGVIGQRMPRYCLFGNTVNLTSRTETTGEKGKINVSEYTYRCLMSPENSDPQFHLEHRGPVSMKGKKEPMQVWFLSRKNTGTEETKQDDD
Nature of the test: CHO cellular assay (cGMP production, HTRF). In kind it is cell-based. The following applies: CHO K1 clone 8E10 overexpressing human sGC, Cisbio HTRF, 1 h room temperature, 1 mM IBMX, 20 uM ODQ, minimum quantification limit 0.5 nM. An excerpt: Chinese hamster ovary (CHO) cells overexpressing soluble guanylate cyclase were generated to test the effect of sGC activators in a cellular context. Human cDNAs for GUCYA3 (RefSeq: NM_000856.3) and GUCYB3 (RefSeq: NM_000857.1) were amplified by PCR from a HUVEC (Human Umbilical Vein Endothelial Cells) cDNA library and cloned into mammalian expression vectors. CHO K1 cells (ATCC CCL-61) were transfected using Lipofectamine 2000 following manufacturer's instructions and stably expressing clones were identified by antibiotic selection. CHO GUCY clone 8E10 was used for subsequent experiments.
Cells were seeded at a density of 3000 cells/well in white 384-well proxyplates (Perkin Elmer) and incubated overnight, then the medium was removed and cells were washed with assay buffer (HBSS, 0.1% BSA, 1 mM IBMX, 20 uM ODQ). sGC activators were serially diluted in DMSO, then diluted in assay buffer prior to adding to cells (10 ul/well, final DMSO concentration 0.5%). Cells were incubated with compounds for 1 h room temperature, then assayed for cGMP production using Cisbio cGMP HTRF kit (62GM2PEC) according to manufacturer's instructions.
The EC50s are calculated based on the amount of cGMP interpolated from the standard curve, using a 4-parameter sigmoidal dose-response.
`CCc1cc(COc2ccc(C3CCN(CC(F)(F)F)CC3)cc2C)c(-c2cccc(-n3ncc(C(=O)O)c3C(F)(F)F)n2)s1` [Example 6-17, 1-(6-(5-Ethyl-3-((2-methyl-4-(1-(2,2,2-trifluoroethyl)piperidin-4-yl)phenoxy)methyl)thiophen-2-yl)pyridin-2-yl)-5-(trifluoromethyl)-1H-pyrazole-4-carboxylic acid] yielded an EC50 of 14 nM.

Compound `CCc1c(C)sc(-c2cccc(-n3ncc(C(=O)O)c3C(F)(F)F)n2)c1COc1ccc(C2CCN(CC(F)(F)F)CC2)cc1C` [Example 6-18, 1-(6-(4-Ethyl-5-methyl-3-((2-methyl-4-(1-(2,2,2-trifluoroethyl)piperidin-4-yl)phenoxy)methyl)thiophen-2-yl)pyridin-2-yl)-5-(trifluoromethyl)-1H-pyrazole-4-carboxylic acid] registered an EC50 of 2.4 nM. Compared with the last compound, the EC50 is about 5.8-fold lower.

In turn, `O=C(O)c1cnn(-c2cccc(-c3sccc3COc3ccc(C4CCN(C(=O)C5CC5)CC4)cn3)n2)c1C(F)(F)F` [Example 6-19, 1-(6-(3-(((5-(1-(Cyclopropanecarbonyl)piperidin-4-yl)pyridin-2-yl)oxy)methyl)thiophen-2-yl)pyridin-2-yl)-5-(trifluoromethyl)-1H-pyrazole-4-carboxylic acid] displayed a concentration for a half-maximal effect (EC50) of 2 nM. This EC50 and that of the compound before are within 1.5-fold of each other. Next, `CCC(=O)N1CCC(c2ccc(OCc3ccsc3-c3cccc(-n4ncc(C(=O)O)c4C(F)(F)F)n3)c(Cl)c2)CC1` [Example 7, 1-(6-(3-((2-Chloro-4-(1-propionylpiperidin-4-yl)phenoxy)methyl)thiophen-2-yl)pyridin-2-yl)-5-(trifluoromethyl)-1H-pyrazole-4-carboxylic acid]: at most 0.5 nM. With `O=C(O)c1cnn(-c2cccc(-c3sccc3COc3ccc(C4CCN(C(=O)C5CC5)CC4)cc3Cl)n2)c1C(F)(F)F` [Example 8, 1-(6-(3-((2-Chloro-4-(1-(cyclopropanecarbonyl)piperidin-4-yl)phenoxy)methyl)thiophen-2-yl)pyridin-2-yl)-5-(trifluoromethyl)-1H-pyrazole-4-carboxylic acid], the EC50 was at most 0.5 nM. Next, `Cc1cc(C2CCN(C(=O)C3CC3)CC2)ccc1OCc1ccsc1-c1cccc(-n2ncc(C(=O)O)c2C)n1` [Example 9, 1-(6-(3-((4-(1-(Cyclopropanecarbonyl)piperidin-4-yl)-2-methylphenoxy)methyl)thiophen-2-yl)pyridin-2-yl)-5-methyl-1H-pyrazole-4-carboxylic acid]: at most 0.5 nM; `CCc1cc(OCc2ccsc2-c2cccc(-n3ncc(C(=O)O)c3C)n2)ccc1C1CCN(C(=O)C2CC2)CC1` [Example 10-1, 1-(6-(3-((4-(1-(Cyclopropanecarbonyl)piperidin-4-yl)-3-ethylphenoxy)methyl)thiophen-2-yl)pyridin-2-yl)-5-methyl-1H-pyrazole-4-carboxylic acid]: at most 0.5 nM; `CCc1cc(OCc2ccsc2-c2cccc(-n3ncc(C(=O)O)c3CC)n2)ccc1C1CCN(C(=O)C2CC2)CC1` [Example 10-2, 1-(6-(3-((4-(1-(Cyclopropanecarbonyl)piperidin-4-yl)-3-ethylphenoxy)methyl)thiophen-2-yl)pyridin-2-yl)-5-ethyl-1H-pyrazole-4-carboxylic acid]: at most 0.5 nM.

`Cc1cc(COc2ccc(C3CCN(C(=O)C4CC4)CC3)cc2C)c(-c2cccc(-n3ncc(C(=O)O)c3C)n2)s1` [Example 10-3, 1-(6-(3-((4-(1-(Cyclopropanecarbonyl)piperidin-4-yl)-2-methylphenoxy)methyl)-5-methylthiophen-2-yl)pyridin-2-yl)-5-methyl-1H-pyrazole-4-carboxylic acid] registered an EC50 of at most 0.5 nM.

In the case of `CCc1cc(OCc2cc(C)sc2-c2cccc(-n3ncc(C(=O)O)c3C)n2)ccc1C1CCN(C(=O)C2CC2)CC1` [Example 10-4, 1-(6-(3-((4-(1-(Cyclopropanecarbonyl)piperidin-4-yl)-3-ethylphenoxy)methyl)-5-methylthiophen-2-yl)pyridin-2-yl)-5-methyl-1H-pyrazole-4-carboxylic acid], the EC50 is at most 0.5 nM. Next, `CCc1cc(OCc2c(C)csc2-c2cccc(-n3ncc(C(=O)O)c3C(F)(F)F)n2)ccc1C1CCN(C(=O)C2CC2)CC1` [Example 10-5, 1-(6-(3-((4-(1-(Cyclopropanecarbonyl)piperidin-4-yl)-3-ethylphenoxy)methyl)-4-methylthiophen-2-yl)pyridin-2-yl)-5-(trifluoromethyl)-1H-pyrazole-4-carboxylic acid]: at most 0.5 nM; `CCc1c(C(=O)O)cnn1-c1cccc(-c2sc(C)c(C)c2COc2ccc(C3CCN(C(=O)C4CC4)CC3)cc2C)n1` [Example 10-6, 1-(6-(3-((4-(1-(Cyclopropanecarbonyl)piperidin-4-yl)-2-methylphenoxy)methyl)-4,5-dimethylthiophen-2-yl)pyridin-2-yl)-5-ethyl-1H-pyrazole-4-carboxylic acid]: at most 0.5 nM. To `Cc1c(OCc2ccsc2-c2cccc(-n3ncc(C(=O)O)c3C(F)(F)F)n2)ccc2c1CCN(Cc1ccccn1)C2` [Example 10-7, 1-(6-(3-(((5-Methyl-2-(pyridin-2-ylmethyl)-1,2,3,4-tetrahydroisoquinolin-6-yl)oxy)methyl)thiophen-2-yl)pyridin-2-yl)-5-(trifluoromethyl)-1H-pyrazole-4-carboxylic acid] belongs 37 nM; to `Cc1cc(C2CCN(C(=O)C3CC3)CC2)ccc1OC(C)c1ccsc1-c1cccc(-n2ncc(C(=O)O)c2C(F)(F)F)c1` (stereo not drawn) [Example 10-8, 1-(3-(3-(1-(4-(1-(Cyclopropanecarbonyl)piperidin-4-yl)-2-methylphenoxy)ethyl)thiophen-2-yl)phenyl)-5-(trifluoromethyl)-1H-pyrazole-4-carboxylic acid], 15 nM.

Consider `Cc1cc(C2CCN(CC(F)(F)F)CC2)ccc1OCc1c(C)csc1-c1cccc(-n2ncc(C(=O)O)c2C(F)(F)F)n1` [Example 10-9, 1-(6-(4-methyl-3-((2-methyl-4-(1-(2,2,2-trifluoroethyl)piperidin-4-yl)phenoxy)methyl)thiophen-2-yl)pyridin-2-yl)-5-(trifluoromethyl)-1H-pyrazole-4-carboxylic acid], for which a half-maximal effect (EC50) was put at 57 nM. To `Cc1cc(C2CCN(C(=O)CC3CC3)CC2)ccc1OCc1ccsc1-c1cccc(-n2ncc(C(=O)O)c2C(F)(F)F)n1` [Example 11, 1-(6-(3-((4-(1-(2-Cyclopropylacetyl)piperidin-4-yl)-2-methylphenoxy)methyl)thiophen-2-yl)pyridin-2-yl)-5-(trifluoromethyl)-1H-pyrazole-4-carboxylic acid] belongs 2 nM.

Compound `Cc1cc(C2CCN(C(=O)C3CCC3)CC2)ccc1OCc1ccsc1-c1cccc(-n2ncc(C(=O)O)c2C(F)(F)F)n1` [Example 12-1, 1-(6-(3-((4-(1-(Cyclobutanecarbonyl)piperidin-4-yl)-2-methylphenoxy)methyl)thiophen-2-yl)pyridin-2-yl)-5-(trifluoromethyl)-1H-pyrazole-4-carboxylic acid] came in with an EC50 of at most 0.5 nM.

Turning to `Cc1cc(C2CCN(C(=O)C3CC3)CC2)ccc1OCc1ccsc1-c1cccc(-n2ncc(C(=O)O)c2C(F)(F)F)n1` [Example 12-2, 1-(6-(3-((4-(1-(Cyclopropanecarbonyl)piperidin-4-yl)-2-methylphenoxy)methyl)thiophen-2-yl)pyridin-2-yl)-5-(trifluoromethyl)-1H-pyrazole-4-carboxylic acid], the concentration for a half-maximal effect (EC50) worked out at 4.5 nM. That is a single-digit nanomolar value.
